Data from patent publication US20060019936A1 (priority 2004, published 2006).
Entries after “also recorded” stand apart in the source; their conditions may differ. Read-outs that look alike come from different tables or passages of the source.

What was measured:
LNCaP cells [1] = type: cell-based, human
PARP = type: cell-based, human
LNCaP cells [2] = experiment: Cell cycle analysis by flow cytometry; type: cell-based, human
p70S6K = experiment: Phosphorylation status of p70S6K in LNCaP cells; type: cell-based, human
LNCaP cells [3] = type: cell-based, human; remark: listed apart in the source
p21 (WAF1/Cip1) = type: cell-based, human
p27 (Kip1) = type: cell-based, human
c-Myc = c-Myc protein levels in LNCaP cells; type: cell-based, human
p45 Skp2 = type: cell-based, human
LNCaP cells [4] = experiment: DNA fragmentation by agarose gel electrophoresis; type: cell-based, human; details: 20 μM, 24 h exposure
Bid = Bid cleavage analysis; type: cell-based, human; details: LNCaP cells
[5] = target: T1, portion of the ER containing the estradiol binding site (Homo sapiens, UniProt P03372); experiment: Electrophoretic gel mobility shift assay of DNA adducts with ER
T1 sequence (P03372 311-547 limits assumed): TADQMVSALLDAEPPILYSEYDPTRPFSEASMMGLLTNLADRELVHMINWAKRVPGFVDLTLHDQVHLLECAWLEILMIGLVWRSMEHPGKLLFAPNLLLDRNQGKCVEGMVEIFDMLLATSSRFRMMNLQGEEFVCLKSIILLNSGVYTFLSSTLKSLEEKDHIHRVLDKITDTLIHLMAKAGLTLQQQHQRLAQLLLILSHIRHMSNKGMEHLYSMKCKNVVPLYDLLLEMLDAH

rabbit uterine ER = target: T2, rabbit uterine ER (Oryctolagus cuniculus, UniProt G1SML6); experiment: Radiometric competitive binding assay for the ER (RBA); details: RBA for estradiol is 100
T2 construct: from tissue; host or cells: rabbit uterus
T2 sequence (G1SML6 1-598): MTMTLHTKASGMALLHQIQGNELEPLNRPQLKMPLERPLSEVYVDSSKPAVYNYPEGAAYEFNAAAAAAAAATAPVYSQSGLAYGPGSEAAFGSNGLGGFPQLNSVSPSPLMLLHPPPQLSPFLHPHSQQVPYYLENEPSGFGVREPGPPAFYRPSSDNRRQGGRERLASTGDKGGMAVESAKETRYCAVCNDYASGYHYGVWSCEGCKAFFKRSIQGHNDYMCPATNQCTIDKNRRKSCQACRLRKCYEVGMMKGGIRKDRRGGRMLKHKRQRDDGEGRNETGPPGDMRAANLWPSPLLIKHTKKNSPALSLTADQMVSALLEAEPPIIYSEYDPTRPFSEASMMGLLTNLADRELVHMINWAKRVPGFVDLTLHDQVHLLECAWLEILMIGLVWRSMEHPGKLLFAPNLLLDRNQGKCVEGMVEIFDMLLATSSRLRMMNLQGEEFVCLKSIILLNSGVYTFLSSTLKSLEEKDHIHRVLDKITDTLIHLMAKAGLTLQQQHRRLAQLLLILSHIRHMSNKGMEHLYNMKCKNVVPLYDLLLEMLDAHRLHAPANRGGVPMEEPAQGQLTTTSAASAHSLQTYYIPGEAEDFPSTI

[6] = system: MCF-7 (ER+) breast cancer cells; experiment: Toxicity toward MCF-7 breast cancer cells; type: cell-based
[7] = system: MDA-MB231 (ER−) breast cancer cells; type: cell-based
[8] = pH 7.4
[9] = system: self complementary octamer deoxyoligonucleotide; experiment: Reactivity with DNA (piperidine labile sites); type: biochemical

Structure (SMILES) | relative binding affinity (RBA) for the ER (rabbit uterine ER) | complex formation of covalent DNA adducts with ER [5] | logD [8] | DNA modification, cleaved by piperidine [9] [%] | toxicity [6] | toxicity [7] | also measured
COCCN(CCOC)c1ccc(CCCNC(=O)OCCNCCCCCCC2CC3(C)C(O)CCC3C3CCC4=CC(=O)CCC4=C23)cc1 (stereo not drawn) [11β-dimethoxy] |  |  |  |  |  |  | apoptotic response (LNCaP cells [1]): did not activate an apoptotic response; also recorded: does not induce markers of apoptosis; toxic effect / cell killing (LNCaP cells [1]): transient toxic effect but does not kill cells; cleavage of PARP (PARP): No cleavage; LNCaP cells in G1 (LNCaP cells [2]; 10 uM for 20 hr, flow cytometry): > 90%; cell cycle arrest (LNCaP cells [2]; LNCaP cells): halt, albeit transiently, the growth of LNCaP cells in the G1 phase of the cell cycle; effect on p70S6K (p70S6K): inhibits p70S6K; changes in LNCaP cell shape (LNCaP cells [3]): slight contraction, which was reversed by 24 h; eventual levels of p21 (p21 (WAF1/Cip1)): recovered to basal levels; initial change in levels of p21 (p21 (WAF1/Cip1)): initially decreased; levels of p27 (p27 (Kip1)): increased; levels of the c-Myc protein (c-Myc): causes c-Myc levels to drop; levels of Skp2 (p45 Skp2): decreased
O=C(O)CCCc1ccc(N(CCCl)CCCl)cc1 [Chlorambucil, reference compound] |  |  |  |  |  |  | apoptotic response (LNCaP cells [1]; LNCaP cells, single agent): fails to induce apoptosis; DNA fragmentation (LNCaP cells [4]): No changes; cleavage of PARP (PARP; 20 μM, LNCaP cells): No cleavage; changes in LNCaP cell shape (LNCaP cells [3]): no effect on cellular shape; Bid cleavage (Bid): No changes; levels of p21 (p21 (WAF1/Cip1); LNCaP cells, 20 μM, up to 15 h): potent inducer of p21; levels of p27 (p27 (Kip1); LNCaP cells, 20 μM, up to 15 h): without effect; levels of Skp2 (p45 Skp2; LNCaP cells, 20 μM, up to 15 h): unaffected
CC12CCC3c4ccc(O)cc4CC(CCCCCCNCCOC(=O)NCCCc4ccc(N(CCCl)CCCl)cc4)C3C1CCC2O (stereo not drawn) [Compound 1, 7α-{N-(2-(N-((N,N-bis-2-chloroethylaminophenyl)propyl)-carbamoyloxy)ethyl)aminohexyl}-3,17β-dihydroxyestra-1,3,5(10)-triene] | excellent affinity |  |  |  |  |  | complex formation of covalent DNA adducts with ER ([5]; gel mobility shift, band eliminated by excess estradiol): form complexes; also recorded: greatest affinity for the ER-LBD; differential toxicity MCF-7 (ER+) versus MDA-MB231 (ER−) ([6]; comparison of the two cell lines): significantly more toxic toward MCF-7 cells than MDA-MB231 cells; also recorded: largest differential toxicity
CC12CCC3c4ccc(O)cc4CC(CCCCCCNCCNC(=N)NCCCc4ccc(N(CCCl)CCCl)cc4)C3C1CCC2O (centres unmarked) [Compound 5] | low RBAs | form complexes; also recorded: virtually all of the modified oligonucleotide formed a slowly migrating band |  |  |  |  | toxicity at the highest dose [6]: neither compound showed significant toxicity; toxicity at the highest dose [7]: neither compound showed significant toxicity
CC12CCC3c4ccc(O)cc4CC(CCCCCCNC(=N)NCCCc4ccc(N(CCCl)CCCl)cc4)C3C1CCC2O (centres unmarked) [Compound 7] | comparable affinities | form complexes |  |  |  |  | toxicity at the highest dose [6]: neither compound showed significant toxicity; toxicity at the highest dose [7]: neither compound showed significant toxicity
CC12CCC3c4ccc(O)cc4CC(CCCCCCOC(=O)NCCCc4ccc(N(CCCl)CCCl)cc4)C3C1CCC2O (centres unmarked) [Compound 9] | low RBAs |  | > 5 | 3 | low toxicity | low toxicity | 
O=P(NCCO)(c1ccccc1)c1ccccc1 [Compound 12] | comparable affinities |  | high logD values |  | low toxicity | low toxicity | 
CC(C)(C)[Si](C)(C)OCCNP(=O)(c1ccccc1)c1ccccc1 [Compound 13] | comparable affinities | form complexes |  | 79 | toxicity similar to that of 1 | toxicity similar to that of 1 | differential toxicity MCF-7 (ER+) versus MDA-MB231 (ER−) [6]: greater toxicity toward the ER-positive MCF-7 cells
CC12CCC3c4ccc(O)cc4CC(CCCCCCNC(=O)CCCc4ccc(N(CCCl)CCCl)cc4)C3C1CCC2O (centres unmarked) [Compound 14] | low RBAs |  | > 5 | 14 | low toxicity | low toxicity | 
CC12CCC3c4ccc(O)cc4CC(CCCCCCNCCCCc4ccc(N(CCCl)CCCl)cc4)C3C1CCC2O (centres unmarked) [Compound 15] | 40 | form complexes |  |  | toxicity similar to that of 1 | toxicity similar to that of 1 | differential toxicity MCF-7 (ER+) versus MDA-MB231 (ER−) [6]: greater toxicity toward the ER-positive MCF-7 cells
